Patent US9023789B2, “Amylin analogs and pharmaceutical compositions thereof” (Novo Nordisk A/S, priority 2012, dated 2015)
≈ marks a conversion by molar mass, not a printed value. Where two headings read alike, the source gives them in different places. Numbered stars: 1 amine (or outer) side, 2 acyl side, 3 side chain; on linkers, the order of the positions; unused ones are H or OH. Bridge positions count the residues as written; N and C are the ends. Side chains are listed from the residue outwards. Peptide text beside a SMILES is read from it. * marks the point of attachment. C20 diacid = O=C(O)CCCCCCCCCCCCCCCCCCC(=O)*; γGlu = O=C(O)[C@H](CCC(=O)[*:2])N[*:1]; AEEA = NCCOCCOCC(=O)O

Key:
[1] = target: T1, human amylin 3(a) receptor (human calcitonin receptor + RAMP-3) in BHK570 cells (Homo sapiens, UniProt O60896+P30988); assay: ASSAY (II)a functional assay, human amylin receptor (CRE luciferase); assay type: cell-based
T1 construct: expressed in transfected cells
Method in brief: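 Readout is luminescence from a cAMP-responsive CRE-luc reporter, developed with LucLite for 30 min at room temperature. Cells were treated for 3 h at 37 °C in 10% FBS/DMEM buffered with 10 mM Hepes (pH 7.4).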

[2] = ASSAY (IV) determination of solubility; assay type: physicochemical
Method in brief: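 UPLC read-out of polypeptide concentration after centrifugation. Samples: aqueous polypeptide stock ([…]) + 100 mM buffer 1:1, glycylglycine pH 3.0–5.0 or bistrispropane pH 6.0–8.0; 18 h, RT.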

[3] = target: T2, human amylin receptor (membranes from Amylin 3(a)/CRE-luc cells) (Homo sapiens, UniProt O60896+P30988); assay: ASSAY (V) binding to the human amylin receptor (SPA, 125I-rat amylin);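 also: competition binding of cell membranes (35 ng/µL) mixed with SPA beads in 384-well plates at 40 µL total volume, read by scintillation counting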
T2 construct: expressed in transfected cells
T2 sequence (P30988 25-474): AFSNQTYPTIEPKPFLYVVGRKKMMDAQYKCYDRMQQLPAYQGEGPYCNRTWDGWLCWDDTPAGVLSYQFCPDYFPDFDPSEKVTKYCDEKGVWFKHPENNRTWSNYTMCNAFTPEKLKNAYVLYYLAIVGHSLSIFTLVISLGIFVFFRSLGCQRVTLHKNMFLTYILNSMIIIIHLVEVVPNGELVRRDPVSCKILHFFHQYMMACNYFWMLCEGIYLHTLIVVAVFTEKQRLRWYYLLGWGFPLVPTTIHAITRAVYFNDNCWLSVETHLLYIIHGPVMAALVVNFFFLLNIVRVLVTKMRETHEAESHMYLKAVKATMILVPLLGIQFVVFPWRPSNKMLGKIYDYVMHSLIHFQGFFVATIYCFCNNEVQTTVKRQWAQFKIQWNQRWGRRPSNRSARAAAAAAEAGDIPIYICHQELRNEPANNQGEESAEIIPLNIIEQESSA
T2 sequence (O60896 24-148 partner): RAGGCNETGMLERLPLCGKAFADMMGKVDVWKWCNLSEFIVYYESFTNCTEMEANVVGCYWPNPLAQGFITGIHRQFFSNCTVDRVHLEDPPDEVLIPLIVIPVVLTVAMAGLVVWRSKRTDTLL

[4] = hCTR funct. EC50 divided by hAmylin-R funct. EC50
[5] = hCTR funct. EC50 over hAmylin-R funct. EC50
[6] = human functional selectivity: hCTR funct. EC50 / hAmylin-R funct. EC50
[7] = Table 5, selectivity, hCTR bind IC50 / hAmylin-R bind IC50
[8] = Table 5a, selectivity, hCTR bind IC50 / hAmylin-R bind IC50
[9] = Table 5b, selectivity, hCTR bind IC50 / hAmylin-R bind IC50
[10] = Table 5c, selectivity, hCTR bind IC50 / hAmylin-R bind IC50
[11] = Table 7, human binding selectivity, included for comparison
[12] = Table 7a (preferred compounds), human binding selectivity, included for comparison
[13] = ratio of human calcitonin receptor binding IC50 to human amylin receptor binding IC50
[14] = bistrispropane buffer, pH 6.5, read-out: Solubility pH 6.5 Concentration
[15] = bistrispropane buffer, pH 7.5, read-out: Solubility pH 7.5 Concentration
[16] = bistrispropane buffer, pH 6.0, read-out: Solubility pH 6.0 Concentration
[17] = bistrispropane buffer, pH 7.0, read-out: Solubility pH 7.0 Concentration
[18] = bistrispropane buffer, pH 8.0, read-out: Solubility pH 8.0 Concentration
[19] = glycylglycine buffer, pH 3.0, read-out: Solubility pH 3.0 Concentration
[20] = glycylglycine buffer, pH 4.0, read-out: Solubility pH 4.0 Concentration
[21] = glycylglycine buffer, pH 5.0, read-out: Solubility pH 5.0 Concentration

Compound	Ratio hCT/hAmylin funct. [1, 4]	Ratio hCT/hAmylin funct. [1, 5]	Ratio hCT/hAmylin funct. [1, 6]	Ratio hCT/hAmylin binding [3, 7]	Ratio hCT/hAmylin binding [3, 8]	Ratio hCT/hAmylin binding [3, 9]	Ratio hCT/hAmylin binding [3, 10]	Ratio hCT/hAmylin binding [3, 11]	Ratio hCT/hAmylin binding [3, 12]	Ratio hCT/hAmylin binding [3, 13]	solubility at 18 h [2, 14]	solubility at 18 h [2, 15]	solubility at 18 h [2, 16]	solubility at 18 h [2, 17]	solubility at 18 h [2, 18]	solubility at 18 h [2, 19]	solubility at 18 h [2, 20]	solubility at 18 h [2, 21]	further results
CC[C@H](C)[C@H](NC(=O)[C@H](C)NC(=O)CNC(=O)[C@H](Cc1ccccc1)NC(=O)[C@H](CC(N)=O)NC(=O)[C@@H]1CCCN1C(=O)[C@H](CO)NC(=O)[C@H](CO)NC(=O)[C@H](Cc1c[nH]cn1)NC(=O)[C@H](CCCNC(=N)N)NC(=O)[C@H](CC(C)C)NC(=O)[C@H](Cc1ccccc1)NC(=O)[C@H](CO)NC(=O)[C@H](C)NC(=O)[C@H](CC(C)C)NC(=O)[C@H](CCCNC(=N)N)NC(=O)[C@H](CCC(N)=O)NC(=O)[C@@H](NC(=O)[C@H](C)NC(=O)[C@@H]1CSSC[C@H](NC(=O)[C@@H](N)CCCCNC(=O)COCCOCCNC(=O)CC[C@H](NC(=O)CCCCCCCCCCCCCCCCCCC(=O)O)C(=O)O)C(=O)N[C@@H](CC(N)=O)C(=O)N[C@@H]([C@@H](C)O)C(=O)N[C@@H](C)C(=O)N[C@@H]([C@@H](C)O)C(=O)N1)[C@@H](C)O)C(=O)N1CCC[C@H]1C(=O)N[C@@H](CO)C(=O)N[C@@H](CO)C(=O)N[C@H](C(=O)N1CCC[C@H]1C(=O)N[C@H](C(=O)NCC(=O)N[C@@H](CO)C(=O)N[C@@H](CC(N)=O)C(=O)N[C@H](C(=O)N[C@@H](Cc1ccc(O)cc1)C(N)=O)[C@@H](C)O)C(C)C)[C@@H](C)O [Example 73] (H-K([AEEA-γGlu-C20 diacid])CNTATCATQRLASFLRHSSPNFGAIPSSTPVGSNTY-NH2; disulfide 2-7 (inferred))	11.3	11.3	11.3	51.7	51.7	51.7	51.7	51.7	51.7	51.7	–	–	–	–	–	–	–	–	solubility at 18 h ([2]; pH 3.0, read-out: Solubility pH 3.0 Concentration): ≥ 200 µM; solubility at 18 h ([2]; pH 4.0, read-out: Solubility pH 4.0 Concentration): ≥ 200 µM; solubility at 18 h ([2]; pH 5.0, read-out: Solubility pH 5.0 Concentration): ≥ 200 µM; solubility at 18 h ([2]; pH 6.0, read-out: Solubility pH 6.0 Concentration): ≥ 200 µM; solubility at 18 h ([2]; pH 6.5, read-out: Solubility pH 6.5 Concentration): ≥ 200 µM; solubility at 18 h ([2]; pH 7.0, read-out: Solubility pH 7.0 Concentration): ≥ 200 µM; solubility at 18 h ([2]; pH 7.5, read-out: Solubility pH 7.5 Concentration): ≥ 200 µM; solubility at 18 h ([2]; pH 8.0, read-out: Solubility pH 8.0 Concentration): 172 µM (≈ 771 µg/mL)
CC[C@H](C)[C@H](NC(=O)[C@H](C)NC(=O)CNC(=O)[C@H](Cc1ccccc1)NC(=O)[C@H](CC(N)=O)NC(=O)[C@@H]1CCCN1C(=O)[C@H](CO)NC(=O)[C@H](CO)NC(=O)[C@H](Cc1c[nH]cn1)NC(=O)[C@H](CCCNC(=N)N)NC(=O)[C@H](CC(C)C)NC(=O)[C@H](Cc1ccccc1)NC(=O)[C@H](CCCNC(=N)N)NC(=O)[C@H](C)NC(=O)[C@H](CC(C)C)NC(=O)[C@H](CCCNC(=N)N)NC(=O)[C@H](CCC(N)=O)NC(=O)[C@@H](NC(=O)[C@H](C)NC(=O)[C@@H]1CSSC[C@H](NC(=O)[C@@H](N)CCCCNC(=O)CC[C@H](NC(=O)CCCCCCCCCCCCCCCCCCC(=O)O)C(=O)O)C(=O)N[C@@H](CC(N)=O)C(=O)N[C@@H]([C@@H](C)O)C(=O)N[C@@H](C)C(=O)N[C@@H]([C@@H](C)O)C(=O)N1)[C@@H](C)O)C(=O)N1CCC[C@H]1C(=O)N[C@@H](CO)C(=O)N[C@@H](CO)C(=O)N[C@H](C(=O)N[C@@H](CC(N)=O)C(=O)N[C@H](C(=O)NCC(=O)N[C@@H](CO)C(=O)N[C@@H](CC(N)=O)C(=O)N[C@H](C(=O)N[C@@H](Cc1ccc(O)cc1)C(N)=O)[C@@H](C)O)C(C)C)[C@@H](C)O [Example 83]	41.6	41.6	41.6	145.6	145.6	145.6	145.6	145.6	145.6	145.6	≥ 200 µM	≥ 200 µM	≥ 200 µM	≥ 200 µM	≥ 200 µM	≥ 200 µM	≥ 200 µM	≥ 200 µM	–
CC[C@H](C)[C@H](NC(=O)[C@H](C)NC(=O)CNC(=O)[C@H](Cc1ccccc1)NC(=O)[C@H](CC(N)=O)NC(=O)[C@@H]1CCCN1C(=O)[C@H](CO)NC(=O)[C@H](CO)NC(=O)[C@H](Cc1c[nH]cn1)NC(=O)[C@H](CCCNC(=N)N)NC(=O)[C@H](CC(C)C)NC(=O)[C@H](Cc1ccccc1)NC(=O)[C@H](CC(N)=O)NC(=O)[C@H](C)NC(=O)[C@H](CC(C)C)NC(=O)[C@H](CCCNC(=N)N)NC(=O)[C@H](CCC(N)=O)NC(=O)[C@@H](NC(=O)[C@H](C)NC(=O)[C@@H]1CSSC[C@H](NC(=O)[C@@H](N)CCCCNC(=O)COCCOCCNC(=O)COCCOCCNC(=O)CC[C@H](NC(=O)CCCCCCCCCCCCCCCCCCC(=O)O)C(=O)O)C(=O)N[C@@H](CC(N)=O)C(=O)N[C@@H]([C@@H](C)O)C(=O)N[C@@H](C)C(=O)N[C@@H]([C@@H](C)O)C(=O)N1)[C@@H](C)O)C(=O)N1CCC[C@H]1C(=O)N[C@@H](CO)C(=O)N[C@@H](CO)C(=O)N[C@H](C(=O)N1CCC[C@H]1C(=O)N[C@H](C(=O)NCC(=O)N[C@@H](CO)C(=O)N[C@@H](CC(N)=O)C(=O)N[C@H](C(=O)N[C@@H](Cc1ccc(O)cc1)C(N)=O)[C@@H](C)O)C(C)C)[C@@H](C)O [Example 96]	21.0	21.0	21.0	79.6	79.6	79.6	79.6	79.6	79.6	79.6	≥ 200 µM	≥ 200 µM	≥ 200 µM	≥ 200 µM	≥ 200 µM	≥ 200 µM	≥ 200 µM	≥ 200 µM	–
